Test results as given in the supplement of paper PMC10307832.

Tests used:
Assay in all cases: relative viability (nuclei count vs DMSO), 5 days (fraction); higher = more cells survive
Motesanib + Lapatinib = compound: CC1(C)CNc2cc(NC(=O)c3cccnc3NCc3ccncc3)ccc21 [Motesanib] + CS(=O)(=O)CCNCc1ccc(-c2ccc3ncnc(Nc4ccc(OCc5cccc(F)c5)c(Cl)c4)c3c2)o1 [Lapatinib] (partner 2 µM)
Outline: (§1)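 Nuclei were stained with Hoechst during a one-step fixation (final 0.05% Triton X-100, 1% formaldehyde, 1 ug/ml Hoechst) carried out 5 days after dosing, then counted on 4× images. The cells, lung cancer lines in 1536-well plates, had been dosed by pin tool the day after seeding with one drug alone or a fixed anchor-drug dose plus five library-drug doses (not always all listed) in √10 steps. Relative viability is the nuclei count in treated wells divided by that in vehicle wells, and each value is the median of duplicate plates.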

[1] = compound: C[C@@]1(C(=O)Nc2ccc(F)nc2)CCCN1c1nc(Nc2cc(C3CC3)n[nH]2)c2cccn2n1 + CC(=O)c1c(C)c2cnc(Nc3ccc(N4CCNCC4)cn3)nc2n(C2CCCC2)c1=O [Palbociclib] (partner 0.5 µM)
Outline: as §1

[2] = compound: C[C@@]1(C(=O)Nc2ccc(F)nc2)CCCN1c1nc(Nc2cc(C3CC3)n[nH]2)c2cccn2n1 + CCNC(=O)c1noc(-c2cc(C(C)C)c(O)cc2O)c1-c1ccc(CN2CCOCC2)cc1 [Luminespib] (partner 0.01 µM)
Outline: as §1

[3] = compound: C[C@@]1(C(=O)Nc2ccc(F)nc2)CCCN1c1nc(Nc2cc(C3CC3)n[nH]2)c2cccn2n1 + N=C(N)NC(=N)NCCc1ccccc1 [Phenformin] (partner 250 µM)
Outline: as §1

| Cell Line | relative viability (Motesanib + Lapatinib; first compound 0.01 µM) | relative viability (Motesanib + Lapatinib; first compound 0.03162 µM) | relative viability (Motesanib + Lapatinib; first compound 0.1 µM) | relative viability (Motesanib + Lapatinib; first compound 0.3162 µM) | relative viability (Motesanib + Lapatinib; first compound 1 µM) | relative viability ([1]; first compound 0.04 µM) | relative viability ([1]; first compound 0.1265 µM) | relative viability ([1]; first compound 0.4 µM) | relative viability ([1]; first compound 1.265 µM) | relative viability ([2]; first compound 0.04 µM) | relative viability ([2]; first compound 0.1265 µM) | relative viability ([2]; first compound 0.4 µM) | relative viability ([2]; first compound 1.265 µM) | relative viability ([3]; first compound 0.04 µM) | relative viability ([3]; first compound 0.1265 µM) | relative viability ([3]; first compound 0.4 µM) | relative viability ([3]; first compound 1.265 µM) |
| --- | --- | --- | --- | --- | --- | --- | --- | --- | --- | --- | --- | --- | --- | --- | --- | --- | --- |
| NCI-H1944 | 0.944 | 0.831 | 0.842 | 0.836 | 0.859 | 0.272 | 0.237 | 0.251 | 0.294 | 0.562 | 0.652 | 0.399 | 0.586 | 0.169 | 0.153 | 0.136 | 0.133 |
| LU99A | 1.03 | 1.2 | 0.94 | 1.03 | 0.883 | 0.273 | 0.208 | 0.173 | 0.26 | 0.244 | 0.246 | 0.197 | 0.181 | 0.773 | 0.621 | 0.586 | 0.52 |
| SW 1573 | 1.16 | 1.09 | 1 | 0.929 | 1.33 | 0.342 | 0.262 | 0.294 | 0.304 | 0.224 | 0.185 | 0.182 | 0.143 | 0.232 | 0.218 | 0.228 | 0.214 |
| NCI-H2347 | 0.961 | 0.776 | 0.986 | 1.01 | 0.838 | 0.405 | 0.415 | 0.386 | 0.436 | 0.706 | 0.448 | 0.206 | 0.288 | 0.368 | 0.495 | 0.312 | 0.41 |
| NCI-H2009 | 1.08 | 0.927 | 0.962 | 1.36 | 0.898 | 0.221 | 0.258 | 0.162 | 0.212 | 1.11 | 1.08 | 1.01 | 1.07 | 0.539 | 0.493 | 0.479 | 0.481 |
| HCC-15 | 0.849 | 0.874 | 0.723 | 0.947 | 0.886 | 0.667 | 0.579 | 0.529 | 0.598 | 0.481 | 0.364 | 0.55 | 0.417 | 0.387 | 0.209 | 0.27 | 0.259 |
| HCC-44 | 0.989 | 0.952 | 1.02 | 1.04 | 1.03 | 0.846 | 0.904 | 0.803 | 0.885 | 0.829 | 0.744 | 0.623 | 0.732 | 0.178 | 0.116 | 0.134 | 0.0862 |
| COR-L23 | 0.931 | 0.929 | 1.01 | 0.996 | 1.08 | 0.242 | 0.308 | 0.197 | 0.173 | 0.714 | 0.65 | 0.449 | 0.45 | 0.454 | 0.407 | 0.406 | 0.241 |
| HCC-78 | 0.662 | 0.785 | 0.63 | 0.913 | 0.916 | 0.446 | 0.377 | 0.464 | 0.363 | – | – | – | – | 0.798 | 0.452 | 0.346 | 0.319 |
| NCI-H1299 | 0.958 | 0.979 | 0.995 | 1.01 | 0.935 | – | – | – | – | – | – | – | – | – | – | – | – |
| NCI-H727 | 0.821 | 0.902 | 0.858 | 1.13 | 0.787 | 0.575 | 0.528 | 0.404 | 0.38 | 0.34 | 0.319 | 0.249 | 0.249 | 0.402 | 0.247 | 0.266 | 0.322 |
| NCI-H2087 | 1.23 | 0.923 | 1.23 | 1.38 | 1.1 | 0.218 | 0.188 | 0.177 | 0.181 | 0.122 | 0.175 | 0.123 | 0.145 | 0.437 | 0.342 | 0.313 | 0.237 |
| BEN | 0.591 | 0.715 | 0.723 | 0.714 | 0.789 | 0.445 | 0.484 | 0.472 | 0.427 | 0.381 | 0.487 | 0.641 | 0.325 | 0.291 | 0.229 | 0.272 | 0.281 |
| LCLC-103H | – | – | – | – | – | 0.471 | 0.452 | 0.48 | 0.465 | 0.92 | 0.766 | 0.733 | 0.927 | 0.343 | 0.309 | 0.253 | 0.28 |
| ChaGo-K-1 | – | – | – | – | – | 0.972 | 0.828 | 0.86 | 0.93 | 0.519 | 0.503 | 0.455 | 0.613 | 0.403 | 0.283 | 0.296 | 0.4 |
| SW 900 | – | – | – | – | – | 0.614 | 0.497 | 0.588 | 0.547 | 0.18 | 0.198 | 0.188 | 0.155 | 0.566 | 0.544 | 0.596 | 0.461 |
| NCI-H596 | 1.08 | 1.04 | 1.06 | 1.16 | 1.18 | – | – | – | – | 0.819 | 0.885 | 0.88 | 1.17 | 0.649 | 0.69 | 0.738 | 0.763 |
| NCI-H1563 | 0.9 | 0.991 | 1.08 | 0.923 | 0.951 | – | – | – | – | 0.545 | 0.506 | 0.547 | 0.528 | 0.64 | 0.671 | 0.605 | 0.626 |
| A549 | 0.965 | 0.975 | 0.989 | 1.09 | 0.955 | – | – | – | – | – | – | – | – | 0.131 | 0.155 | 0.101 | 0.281 |
| NCI-H2342 | – | – | – | – | – | 0.505 | 0.598 | 0.47 | 0.48 | 0.63 | 0.606 | 0.505 | 0.499 | 0.574 | 0.43 | 0.46 | 0.44 |
| NCI-H1623 | – | – | – | – | – | – | – | – | – | 0.47 | 0.368 | 0.345 | 0.403 | 0.563 | 0.462 | 0.449 | 0.477 |
| NCI-H522 | – | – | – | – | – | 0.935 | 0.874 | 0.779 | 0.889 | 1.04 | 1.02 | 1.04 | 0.974 | 0.557 | 0.633 | 0.59 | 0.56 |
| IA-LM | 0.88 | 0.723 | 0.703 | 0.645 | 0.729 | – | – | – | – | – | – | – | – | – | – | – | – |
| EBC-1 | 0.268 | 0.206 | 0.223 | 0.211 | 0.223 | – | – | – | – | – | – | – | – | – | – | – | – |
